Measurements reported in article PMC11091828 (Journal of medicinal chemistry, 2023).

Tests used:
hD3R [1] = target: T1, hD3R (Homo sapiens, UniProt P35462); test: BRET D3R-mediated GαoA G protein activation; type: cell-based; settings: agonist mode; NA = No Activity at the highest tested concentration
hMOR = hMOR (Homo sapiens, UniProt P35372); test: hMOR radioligand binding, competition with [3H]-DAMGO, HEK293 membranes; settings: for improved MOR affinity with respect to 2-THP unsubstituted analog: 122 vs 115, 121 vs 112
mMOR [2] = target: T2, mMOR (Mus musculus, UniProt P42866); test: BRET MOR-mediated Gαi2 G protein activation; type: cell-based; settings: NA = No Activity at the highest tested concentration
mMOR [3] = target: T2, mMOR; test: BRET Nb33 recruitment at MOR, HEK 293T cells; type: cell-based; settings: read-out: MOR Nb33 recruitment Emax ± SEM
hD3R [4] = target: T1, hD3R; type: binding; settings: from Ki values
mMOR [5] = target: T2, mMOR; test: BRET arrestin-3 recruitment at MOR with overexpressed GRK2, HEK 293T cells; type: cell-based; settings: NA = No Activity at the highest tested concentration

T2 sequence (P42866 whole entry): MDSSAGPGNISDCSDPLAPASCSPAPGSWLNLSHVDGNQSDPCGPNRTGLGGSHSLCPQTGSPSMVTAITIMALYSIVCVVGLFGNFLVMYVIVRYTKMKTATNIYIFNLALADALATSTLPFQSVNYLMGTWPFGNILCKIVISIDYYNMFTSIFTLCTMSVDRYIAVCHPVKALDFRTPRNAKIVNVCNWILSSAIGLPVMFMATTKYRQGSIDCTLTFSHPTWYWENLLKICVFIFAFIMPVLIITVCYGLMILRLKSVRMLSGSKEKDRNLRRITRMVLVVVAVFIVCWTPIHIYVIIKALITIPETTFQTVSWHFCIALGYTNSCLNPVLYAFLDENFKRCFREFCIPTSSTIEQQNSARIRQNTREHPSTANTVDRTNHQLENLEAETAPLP
Chain of hMOR (P35372 whole entry): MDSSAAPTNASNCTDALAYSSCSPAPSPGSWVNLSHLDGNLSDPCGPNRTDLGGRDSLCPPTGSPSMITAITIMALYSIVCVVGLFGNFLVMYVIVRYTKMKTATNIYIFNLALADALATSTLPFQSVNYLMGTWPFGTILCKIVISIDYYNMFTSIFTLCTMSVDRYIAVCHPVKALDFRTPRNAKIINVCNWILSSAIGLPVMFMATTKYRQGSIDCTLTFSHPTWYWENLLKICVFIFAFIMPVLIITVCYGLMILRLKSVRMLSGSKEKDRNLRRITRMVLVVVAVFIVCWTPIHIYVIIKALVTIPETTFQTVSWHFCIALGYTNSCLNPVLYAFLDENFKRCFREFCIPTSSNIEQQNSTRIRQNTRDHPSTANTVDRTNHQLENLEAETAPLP
T1 sequence (P35462 whole entry): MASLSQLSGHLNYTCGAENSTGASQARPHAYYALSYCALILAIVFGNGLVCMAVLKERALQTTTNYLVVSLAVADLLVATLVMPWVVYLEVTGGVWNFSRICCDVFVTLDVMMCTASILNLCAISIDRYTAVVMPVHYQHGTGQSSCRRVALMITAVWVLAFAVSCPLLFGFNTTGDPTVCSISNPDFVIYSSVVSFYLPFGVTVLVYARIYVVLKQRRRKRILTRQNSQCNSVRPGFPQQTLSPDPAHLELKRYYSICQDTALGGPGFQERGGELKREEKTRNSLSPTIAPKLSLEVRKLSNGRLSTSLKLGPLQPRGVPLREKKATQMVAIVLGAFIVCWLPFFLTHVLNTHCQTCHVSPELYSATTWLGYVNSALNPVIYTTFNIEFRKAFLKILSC

CCc1cc(Cl)c(OC)c(N2CCN(C[C@@H]3C[C@@H](O)CN3CCC(C(=O)N(C)C)(c3ccccc3)c3ccccc3)CC2)c1 [compound 34, 4-((2S,4R)-2-((4-(3-Chloro-5-ethyl-2-methoxyphenyl)piperazin-1-yl)methyl)-4-hydroxypyrrolidin-1-yl)-N,N-dimethyl-2,2-diphenylbutanamide]
D3R GoA activation pEC50 ± SEM (hD3R [1]): 7.60 ± 0.99

CN(C)C(=O)C(CCN1C[C@H](O)CC1=CN1CCN(c2cccc(Cl)c2Cl)CC1)(c1ccccc1)c1ccccc1 (mixture of isomers) [compound 26, (R)-4-(2-((4-(2,3-Dichlorophenyl)piperazin-1-yl)methylene)-4-hydroxypyrrolidin-1-yl)-N,N-dimethyl-2,2-diphenylbutanamide]
Ki (hMOR): 0.0238 µM

FC(F)(F)c1cccc(N2CCN(CCC3(c4ccccn4)CCOC4(CCCC4)C3)CC2)n1 (stereo not drawn) [compound 122, 1-(2-(9-(Pyridin-2-yl)-6-oxaspiro[4.5]decan-9-yl)ethyl)-4-(6-(trifluoromethyl)pyridin-2-yl)piperazine]
improved MOR affinity with respect to 2-THP unsubstituted analog (hMOR): > 10 fold

CN(C)C(=O)C(CCN1C[C@H](F)C[C@H]1C(=O)NCCCCN1CCN(c2cccc(C(F)(F)F)n2)CC1)(c1ccccc1)c1ccccc1 [compound 56, (2S,4R)-1-(4-(Dimethylamino)-4-oxo-3,3-diphenylbutyl)-4-fluoro-N-(4-(4-(6-(trifluoromethyl)pyridin-2-yl)piperazin-1-yl)butyl)pyrrolidine-2-carboxamide]
MOR Gi2 activation pEC50 ± SEM (mMOR [2]): 5.94 ± 0.08

COc1ccccc1[C@@H]1C[C@H]1NCCC(C(=O)N(C)C)(c1ccccc1)c1ccccc1 (relative stereo) [compound 84, rel-trans-4-((2-(2-Methoxyphenyl)cyclopropyl)amino)-N,N-dimethyl-2,2-diphenylbutanamide]
Emax (mMOR [3]): 31 ± 2.3%

Clc1ccc([C@@H]2C[C@H]2NCCC2(c3ccccn3)CCOC3(CCCC3)C2)cc1 (relative stereo) [compound 121, rel-trans-2-(4-Chlorophenyl)-N-(2-(9-(pyridin-2-yl)-6-oxaspiro[4.5]decan-9-yl)ethyl)cyclopropan-1-amine]
D3R selectivity over D2R (hD3R [4]): 15 fold | MOR arr3 recruitment (+ GRK2) pEC50 ± SEM (mMOR [5]): 6.58 ± 0.08 | improved MOR affinity with respect to 2-THP unsubstituted analog (hMOR): > 10 fold

CCCN(CCC(C(=O)N(C)C)(c1ccccc1)c1ccccc1)[C@@H]1C[C@H]1c1ccc(Cl)cc1 (relative stereo) [compound 80, rel-trans-4-((2-(4-Chlorophenyl)cyclopropyl)(propyl)amino)-N,N-dimethyl-2,2-diphenylbutanamide]
Emax (mMOR [3]): 27.7 ± 4.9%
